Where two headings read alike, the source gives them in different places.
Assays:
[1] = test system: C. parvum Iowa isolate (Bunch Grass Farm); experiment: C. parvum Iowa isolate (Bunch Grass Farm) growth in HCT-8 cells, high-content microscopy; format: cell-based; settings: Cryptosporidium parvum
Procedure: A high-content microscopy assay was used to measure activity of compounds against C. parvum grown in the human adenocarcinoma cell line HCT-8 (ATCC) as disclosed in Bessoff, K., et al., Antimicrobial agents and chemotherapy 57, 1804-1814, doi:10.1128/AAC.02460-12 (2013), hereby incorporated by reference in its entirety. HCT-8 cells were cultured in 384-well clear-bottomed plates in 50 μL per well of RPMI 1640 medium ([…]), 120 U·mL^−1 penicillin, and 120 μg·mL^−1 streptomycin (ATCC) at 37° C. under 5% CO2. For compound screening and follow-up SAR studies, confluent cell monolayers were infected with C. parvum Iowa isolate oocysts [Bunch Grass Farm (Deary, Id.); ˜5,500 oocysts per well] after inducing excystation by treatment for 10 min at 37° C. with 10 mM HCl and then 10 min at 16° C. in 2 mM sodium taurocholate. Compounds were added at the indicated concentrations 3 h after monolayer infection. After incubation (37° C., 5% CO2) for 48 h, the cells were washed three times with PBS containing 111 mM D-Galactose and fixed by adding an equal volume of 8% formaldehyde in PBS. Cell monolayers were then prepared for microscopy by permeabilizing with 0.1% Triton X-100, washing three times with PBS with 0.1% Tween 20, blocking with 4% bovine serum albumin (BSA) in PBS for 2 h at 37° C. or 4° C. overnight, and staining parasitophorous vacuoles with 1.33 μg·mL^−1 of fluorescein-labeled Vicia villosa lectin (Vector Laboratories) diluted in 1% BSA in PBS with 0.1% Tween 20 for 1 h at 37° C. DNA was then stained by adding Hoechst 33258 (AnaSpec) at a final concentration of 0.09 mM diluted in water, followed by washing five times with PBS containing 0.1% Tween 20. Images were acquired using a Nikon Eclipse TE2000 epifluorescence microscope with an automated stage that was programmed using NIS-Elements Advanced Research software (Nikon) to focus on the center of each well and take a 3×3 composite image using an EXi Blue fluorescence microscopy camera (QImaging) with a 20× objective (numerical aperture 0.45). Nucleus and parasite images were exported separately as tif files and analyzed using NIH ImageJ and previously reported macros, and data analysis and graphing were done using GraphPad Prism software, version 6.01. […]

[2] = test system: C. parvum (Iowa) Sterling; experiment: C. parvum (Iowa) Sterling growth in HCT-8 cells; format: cell-based; settings: Cryptosporidium parvum
Procedure: (§1) Studies using farm C. parvum isolates and the C. hominis TU502 isolate were performed by Calibr at Scripps Research (La Jolla, Calif.) in 1,536-well plates using a slightly modified immunofluorescence assay as described in Love, M. S. et al. PLoS neglected tropical diseases 11, e0005373, doi:10.1371/journal.pntd.0005373 (2017), hereby incorporated by reference in its entirety. HCT-8 cell culture medium was replaced with RPMI 1640 medium supplemented with 2% heat-inactivated horse serum, 100 U·mL^−1 penicillin, and […] 24 h prior to infection with the indicated isolate. The C. parvum Iowa isolate was included as a reference in all experiments. Imaging was performed using a Cellnsight CX5 High Content screening platform (Thermo Scientific) with a 10× objective and acquisition of one microscopic field per well. Images were processed using HCS Studio Scan software, and the selected-object count (HCT-8 cells) and spot count (parasitophorous vacuoles) were analyzed in Genedata Screener (version 13.0; Standard). Dose-response curves and EC50 values were calculated using the Smart Fit function of Genedata Analyzer.

[3] = test system: C. parvum (Field Isolate) WSU; experiment: C. parvum field isolate (WSU) growth in HCT-8 cells; format: cell-based; settings: Cryptosporidium parvum
Procedure: as §1

[4] = test system: C. hominis (TU 502); experiment: C. hominis TU502 growth in HCT-8 cells; format: cell-based; settings: Cryptosporidium hominis
Procedure: as §1

[5] = HepG2 cytotoxicity; format: cell-based; settings: human, HepG2 cells
[6] = test system: HepG2 cells; experiment: HepG2 cytotoxicity; format: cell-based; settings: C. parvum Iowa isolate (1% FBS) EC50 compared to HepG2 CC50
[7] = HEK293T cytotoxicity; format: cell-based; settings: human, HEK293T cells
[8] = test system: C. parvum; experiment: NOD SCID gamma mouse model of established cryptosporidiosis, fecal oocyst shedding by qPCR; format: in vivo, NOD SCID gamma mice; settings: oral, 50 mg/kg every 24 h for 4 days
Text: FIG. 4A is a schematic of NOD SCID gamma (NSG) mouse model of established intestinal cryptosporidiosis. Intestinal C. parvum infection was established by oral gavage of ˜10^5 oocysts either 7 days (FIGS. 4B and C) or 14 days (FIG. 4D) prior to oral treatment with bicyclic azetidines, vehicle, or paromomycin (positive control). All data are the mean and SEM (n=4 mice per experimental group) of parasite shedding per mg of feces measured by qPCR with results for individual mice shown as superimposed data points. Data points for which no parasite DNA was detected are shown at the qPCR assay limit of detection (0.1 oocysts per mg feces).
NOD scid gamma mice (NOD.Cg-Prkdcscid Il2rgtmlWjl/Szj; Jackson Laboratory, Bar Harbor, Me.) (NSG) were used to model established Cryptosporidium infection. All NSG mouse studies were performed in compliance with animal care guidelines and with approval by the University of Vermont Institutional Animal Care and Use Committee. Mice were acquired at three to four weeks of age, and acclimatized for one week prior to infection by oral gavage of ˜10^5 C. parvum Iowa isolate (Bunch Grass Farms) oocysts. They were then treated at the specified times and dosages with each compound dissolved in 0.5% hydroxypropylmethyl cellulose, 0.5% Tween 80 (v/v) plus 5% DMSO.
This cryptosporidiosis infection model used 3-4 week old, freshly weaned, NOD SCID gamma mice orally infected with C. parvum oocysts (˜1×10^5). The infection was monitored by qPCR of feces with primers specific for C. parvum and data are shown as number of oocysts milligram^−1 of feces. Six days following infection and upon confirmation of parasite shedding by qPCR, the three compounds, negative and positive control were orally administered at 50 mg·kg^−1 (body weight) every 24 h for 4 days. (FIGS. 4A-D). […] We then performed a dose-ranging study with Compound 11 using the same immunocompromised mouse model and dosing regimens of 5, 20 and 40 mg·kg^−1 every 24 h for 4 days or 10 mg·kg^−1 every 24 h for 7 days. Mice were monitored for an additional 14 days for relapse of infection.

[9] = test system: C. parvum; settings: general statement or literature report; cited from earlier work
[10] = test system: P. falciparum; experiment: P. falciparum blood-stage growth inhibition; format: cell-based; settings: Plasmodium falciparum
Procedure: Pf EC50's were obtained using the procedure disclosed in Bessoff, K. et al. Antimicrobial agents and chemotherapy 58, 2731-2739, doi:10.1128/AAC.02641-13 (2014), hereby incorporated by reference in its entirety. Reduction in C. parvum oocysts/mg feces was determined in the C. parvum immunocompromised mouse model as described in the Examples.

[11] = test system: C. parvum WT transgenic PheRS (wtL482); experiment: In vitro drug susceptibility in HCT-8 cells, luminescence, wild type transgenic; format: cell-based; settings: Cryptosporidium parvum, HCT-8, 48 h, read-out: EC50, wild type transgenic
Procedure: (§2) The in vitro drug susceptibility assay using transgenic parasites expressing Nluc was performed as described in Vinyak et al. Briefly, host intestinal epithelial adenocarcinoma (HCT-8) cells grown in 96-well plates were infected with purified transgenic Nluc-expressing oocysts (1,000 oocysts per well) and incubated with different concentrations of Compound 11 for 48 hours. Culture supernatant was discarded from the wells after 48 hours, and 200 μl of NanoGlo lysis buffer containing 1:50 of NanoGlo substrate (Promega) was added to the wells. Lysates were transferred to white 96-well plates and luminescence was measured on a Glomax luminescence reader (Promega). EC50 values were calculated in GraphPad Prism software v7.
(§3) Oocysts from the mutant (mut482V) and wild type (wtL482) transgenic lines were purified as well as the parent strain (Bunchgrass) used to generate the transgenics. Sporozoites were excised from these oocysts and used to infect 96 well format HCT-8 cultures to perform in vitro drug susceptibility assays. Cultures were incubated for 48 hours in the presence of varying concentrations of Compound 11 and parasite growth was measured by establishing whole well luciferase activity to calculate EC50 values for each strain.

[12] = test system: C. parvum mutant transgenic PheRS (mut482V); experiment: microbe, parasite or virus in culture; format: cell-based, Cryptosporidium parvum
Procedure: as §2, §3

[13] = read-out: C. parvum (Iowa) (1% FBS) BGF EC50
[14] = read-out: C. parvum (Iowa) (10% FBS) BGF EC50
[15] = serum not given, read-out: C. parvum EC50

SMILES | EC50 [1, 13] [nM] | EC50 [1, 14] [nM] | EC50 [2] [nM] | EC50 [3] [nM] | EC50 [4] [nM] | CC50 [5] [nM] | CC50 [7] [nM] | reduction in oocyst shedding (oocysts per mg feces) [8] | EC50 [1, 15] [nM] | outcome of treatment in C. parvum infected NSG mice [9] | further results
COc1ccc(NC(=O)N2CCCCN3[C@H](CN(C)C(C)=O)[C@H](c4ccc(C#Cc5ccccc5)cc4)[C@@H]3C2)cc1 [Compound 16, (8R,9S,10S)-N-(4-methoxyphenyl)-10-((N-methylacetamido)methyl)-9-(4-(phenylethynyl)phenyl)-1,6-diazabicyclo[6.2.0]decane-6-carboxamide] | 2 | 8 | 0.6 | 6 | 3 | 25000 | 27000 | greatest reduction in oocysts | – | – | selectivity index [6]: > 10,000
COc1ccc(NC(=O)N2CCCCN3[C@H](COCCC(=O)O)[C@H](c4ccc(C#Cc5ccccc5)cc4)[C@@H]3C2)cc1 [Compound 10, 3-(((8R,9R,10S)-6-((4-methoxyphenyl)carbamoyl)-9-(4-(phenylethynyl)phenyl)-1,6-diazabicyclo[6.2.0]decan-10-yl)methoxy)propanoic acid] | 4 | 15 | 2 | 9 | 5 | > 40000 | > 40000 | significant reduction in oocyst shedding | < 73 | – | –
CC(C)/N=c1\cc2n(-c3ccc(Cl)cc3)c3ccccc3nc-2cc1Nc1ccc(Cl)cc1 [clofazimine] | – | – | – | – | – | – | – | – | – | show no improvement at all | –
COC[C@@]12CN(C(=O)Nc3ccc(OC)cc3)CCCCN1[C@H](CO)[C@@H]2c1ccc(C#Cc2ccccc2)cc1 [Compound 2, (8R,9S,10S)-10-(hydroxymethyl)-8-(methoxymethyl)-N-(4-methoxyphenyl)-9-(4-(phenylethynyl)phenyl)-1,6-diazabicyclo[6.2.0]decane-6-carboxamide] | – | – | – | – | – | – | – | – | 580 | – | EC50 [10]: 627 nM
COc1ccc(NC(=O)N2CCCCN3[C@H](CO)[C@H](c4ccc(C#Cc5ccccc5)cc4)[C@@H]3C2)cc1 [Compound 9, (8R,9R,10S)-10-(hydroxymethyl)-N-(4-methoxyphenyl)-9-(4-(phenylethynyl)phenyl)-1,6-diazabicyclo[6.2.0]decane-6-carboxamide] | – | – | – | – | – | – | – | significant reduction in oocyst shedding | < 73 | – | –
NC[C@@H]1O[C@H](O[C@H]2[C@@H](O)[C@H](O[C@@H]3[C@@H](O)[C@H](N)C[C@H](N)[C@H]3O[C@H]3O[C@H](CO)[C@@H](O)[C@H](O)[C@H]3N)O[C@@H]2CO)[C@H](N)[C@@H](O)[C@@H]1O [paromomycin] | – | – | – | – | – | – | – | – | – | quickly relapse | –
COc1ccc(NC(=O)N2C[C@@H](O)[C@@H](O)CN3[C@H](CS(C)(=O)=O)[C@H](c4ccc(C#Cc5ccccc5)cc4)[C@@H]3C2)cc1 [Compound 18, (3S,4R,8R,9R,10S)-3,4-dihydroxy-N-(4-methoxyphenyl)-10-((methylsulfonyl)methyl)-9-(4-(phenylethynyl)phenyl)-1,6-diazabicyclo[6.2.0]decane-6-carboxamide] | < 0.4 | – | < 0.4 | < 0.4 | 2 | 8000 | 6000 | – | – | – | –
O=C(Nc1ccc(Cl)cc1)N1CCN(c2ccc3nncn3n2)CC1 [MMV665917] | – | – | – | – | – | – | – | – | – | curative | –
COc1ccc(NC(=O)N2CCCCN3[C@H](CN(C)S(C)(=O)=O)[C@H](c4ccc(C#Cc5ccccc5)cc4)[C@@H]3C2)cc1 [Compound 17, (8R,9R,10S)-N-(4-methoxyphenyl)-10-((N-methylmethylsulfonamido)methyl)-9-(4-(phenylethynyl)phenyl)-1,6-diazabicyclo[6.2.0]decane-6-carboxamide] | 6 | 7 | 5 | 6 | 4 | > 40000 | > 40000 | greatest reduction in oocysts | – | – | –
COc1ccc(NC(=O)N2CCCCN3C[C@H](c4ccc(C#Cc5ccccc5)cc4)[C@@H]3C2)cc1 [Compound 19, (8R,9S)-N-(4-methoxyphenyl)-9-(4-(phenylethynyl)phenyl)-1,6-diazabicyclo[6.2.0]decane-6-carboxamide] | 36 | 62 | 31 | 96 | 55 | 10000 | 25000 | – | – | – | EC50 [11]: 40.8 nM; fold shift in EC50, mutant transgenic vs wild type transgenic [12]: 9 fold; EC50 ([12]; Cryptosporidium parvum, HCT-8, 48 h, read-out: EC50, mutant transgenic): 372 nM

— patent publication US20230009323A1, “COMPOUNDS AND METHODS FOR THE TREATMENT OF CRYPTOSPORIDIOSIS” (The Broad Institute, Inc., priority 2019, published 2023)
